Patent US20110076293A1, “TRIPTOLIDE DERIVATIVES FOR MODULATION OF APOPTOSIS AND IMMUNOSUPPRESSION” (priority 2002, published 2011)
pIC50: −log10 of the molar value.

Columns and labels:
[1] = test system: IL-2 production in Jurkat human T lymphocyte cells; test: IL-2 production assay for activity of compounds incubated with human serum
in vitro = conditions: incomplete conversion to triptolide, 48 hr incubation
Description: Compounds of formula I, as shown in Table 1 above and in the Examples, were assayed for their capacity to induce apoptosis in cells from the Jurkat human T lymphocyte cell line, after incubation with pooled human serum for varying periods of time at 37° C. (see Example 19). An ester prodrug, triptolide-14-succinate, designated PG490-88, was included for comparison. The extent of conversion to triptolide after such incubation was also independently determined by HPLC analysis.
Prodrug conversions to triptolide as determined independently by HPLC are given in […].

[2] = Table 7, Jurkat cells (48 hrs), 0.001 nM
[3] = Table 7, Jurkat cells (48 hrs), 0.01 nM
[4] = Table 7, Jurkat cells (48 hrs), 0.1 nM
[5] = Table 7, Jurkat cells (48 hrs), 1 nM
[6] = Table 7, Jurkat cells (48 hrs), 10 nM
[7] = Table 7, Jurkat cells (48 hrs), 100 nM
[8] = Table 7, Jurkat cells (48 hrs), 1000 nM
[9] = Table 7, Jurkat cells (48 hrs), 10000 nM
[10] = Table 8, Jurkat cells, 0.0001 nM
[11] = Table 8, Jurkat cells, 0.001 nM
[12] = Table 8, Jurkat cells, 10000 nM

Compound	IL-2 pg/mL at given concentration (nM) [1, 2]	IL-2 pg/mL at given concentration (nM) [1, 3]	IL-2 pg/mL at given concentration (nM) [1, 4]	IL-2 pg/mL at given concentration (nM) [1, 5]	IL-2 pg/mL at given concentration (nM) [1, 6]	IL-2 pg/mL at given concentration (nM) [1, 7]	IL-2 pg/mL at given concentration (nM) [1, 8]	IL-2 pg/mL at given concentration (nM) [1, 9]	IL-2 pg/mL at given concentration (nM) [1, 10]	IL-2 pg/mL at given concentration (nM) [1, 11]	IL-2 pg/mL at given concentration (nM) ([1]; Table 8, Jurkat cells, 0.01 nM)	IL-2 pg/mL at given concentration (nM) ([1]; Table 8, Jurkat cells, 0.1 nM)	IL-2 pg/mL at given concentration (nM) ([1]; Table 8, Jurkat cells, 1 nM)	IL-2 pg/mL at given concentration (nM) ([1]; Table 8, Jurkat cells, 10 nM)	IL-2 pg/mL at given concentration (nM) ([1]; Table 8, Jurkat cells, 100 nM)	IL-2 pg/mL at given concentration (nM) ([1]; Table 8, Jurkat cells, 1000 nM)	IL-2 pg/mL at given concentration (nM) [1, 12]	further results
CC(C)[C@]12O[C@H]1[C@@H]1O[C@]13[C@]1(O[C@H]1C[C@H]1C4=C(CC[C@@]13C)C(=O)OC4)[C@@H]2O [PG490, Triptolide]	929.7 pg/mL	908.6 pg/mL	937.8 pg/mL	835.2 pg/mL	556.1 pg/mL	120.7 pg/mL	62.9 pg/mL	59.2 pg/mL	80.0 pg/mL	97.2 pg/mL	83.2 pg/mL	87.1 pg/mL	75.7 pg/mL	25.5 pg/mL	17.8 pg/mL	12.9 pg/mL	22.3 pg/mL	–
CC(C)[C@]12O[C@H]1[C@@H]1O[C@]13[C@]1(O[C@H]1C[C@H]1C4=C(CC[C@@]13C)C(=O)OC4)[C@@H]2OC(=O)CCC(=O)O [PG490-88, triptolide-14-succinate, reference compound]	776.4 pg/mL	771.0 pg/mL	809.5 pg/mL	732.4 pg/mL	605.1 pg/mL	317.5 pg/mL	65.9 pg/mL	58.2 pg/mL	96.1 pg/mL	83.0 pg/mL	87.5 pg/mL	86.3 pg/mL	88.2 pg/mL	42.7 pg/mL	14.0 pg/mL	8.4 pg/mL	23.8 pg/mL	max. conversion at 48 hr in human plasma by HPLC (in vitro): max. 26%; pIC50 ([1]; IL-2 production in Jurkat cells after incubation with pooled human serum for 48 hours at 37° C.): 8.05; Conversion (%) ([1]; percent of the IC50 value produced by triptolide (PG490) in the same experiment, human serum 48 hours): 51%
CCNC(=O)O[C@@H]1[C@@]2(C(C)C)O[C@H]2[C@@H]2O[C@]23[C@]12O[C@H]2C[C@H]1C2=C(CC[C@@]13C)C(=O)OC2 [PG666, Triptolide 14-Ethyl Carbamate]	844.6 pg/mL	799.8 pg/mL	860.6 pg/mL	773.0 pg/mL	819.1 pg/mL	528.0 pg/mL	180.1 pg/mL	63.5 pg/mL	94.3 pg/mL	105.1 pg/mL	97.0 pg/mL	92.8 pg/mL	80.0 pg/mL	89.8 pg/mL	33.3 pg/mL	10.0 pg/mL	8.0 pg/mL	concentration for equal IL-2 inhibitory activity relative to the active concentration of PG490 [1]: 10-30 times; bioactivity in IL-2 inhibition assays (in words) ([1]; FIGS. 4-5): some level of bioactivity
